Reference: patent publication US12329755B2, “Bromodomain inhibitors to target therapy-resistant cancer” (University of Tennessee Research Foundation, priority 2019, dated 2025)
“Also recorded” adds a separate entry of the source.

Tests used:
X16 BTICs = conditions: X16 BTICs; cited from earlier work
X10 BTICs = conditions: X10 BTICs; cited from earlier work
GBM cells [1] = assay: overall statements on GBM cell death and sensitization to TMZ; type: cell-based; conditions: for sensitizing activity to TMZ compared to PFI-3: in vitro and in an animal model of GBM; for GBM cell death: used alone
Source text: The syntheses of two exemplary PA BRIs, referred to herein as YH-IV-073 (or IV-073), and YH-IV-077 (or IV-077), as well as of PFI-3 (also referred to herein as YH-IV-081), are shown in Scheme 2, below. As shown in Scheme 2, commercially available tert-butyloxycarbonyl (BOC)-protected amine 1 is contacted with 2-bromopyridine (2) to form intermediate 3. The protecting group can be removed (e.g., via hydrolysis) to give the corresponding amine 4. Compound 4 can be coupled with a carboxylic acid (5, 6, or 7) to afford target YH-IV-073, YH-IV-077 and YH-IV-081, respectively. […] These analogs will provide greater insight into the importance of substitution of the A ring.
The synthetic route shown in Scheme 3, below, was used to synthesize new analogs with different substituents in the 2-position of the A-ring, such as YH-IV-085. As shown in Scheme 3, a commercially available 1-phenylprop-2-yn-1-one (e.g., 8 or 9) can be reacted with BOC-protected amine compound 1 to afford a BOC-protected intermediate (e.g., 10 or 11), which can be hydrolyzed to provide corresponding deprotected intermediate (12 or 13). The intermediates can be coupled with the 2-bromopyridine (2) to yield target compounds (e.g., 14 or YH-IV-085), respectively. YH-IV-085 is believed to be the first PFI-3 analog prepared without a 2-hydroxy moiety in the A-ring.

[2] = biological target: T1, GFP-tagged bromodomain of BRG1 (GFP-BRG1 BRD) (Homo sapiens, UniProt P51532); assay: nuclear localization of fluorescently tagged BRG1 bromodomain in MT330 GBM cells; type: cell-based; conditions: PFI-3 10 or 30 μM; IV-073 5, 10 or 30 μM; compared to DMSO
T1 construct: a fluorescently tagged bromodomain of BRG1 expressed in MT330 GBM cells; expressed in transfected cells; host or cells: MT330 GBM cells
T1 sequence (P51532 1453-1564 limits assumed): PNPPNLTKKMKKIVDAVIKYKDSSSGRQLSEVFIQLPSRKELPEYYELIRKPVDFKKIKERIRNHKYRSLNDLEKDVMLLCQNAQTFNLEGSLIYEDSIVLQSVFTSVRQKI
Source text: FIG. 4 is a series of fluorescence microscopy images showing the effects of Brahma-related gene-1 bromodomain inhibitors (BRIs) on the nuclear localization of a green fluorescent protein (GFP)-tagged bromodomain of Brahma-related gene-1 (GFP-BRG1 BRD).
The effects of PFI-3 and its analogs on the nuclear localization of a fluorescently tagged bromodomain of BRG1 expressed in MT330 GBM cells was studied. In the control samples, the fluorescent bromodomain is localized to the nucleus. However, an inhibitor displaces it from the nucleus and the fluorescence signal markedly decreases because it is degraded in the cytoplasm.

bromodomain of BRG1 = biological target: T2, bromodomain of BRG1 (Homo sapiens, UniProt P51532); assay: thermal shift assay of the BRG1 bromodomain in MT330 GBM cells; type: binding; conditions: 44.5° C. to 55.6° C.; PFI-3 30 μM, IV-073 20 μM, two hours; compared to DMSO
T2 construct: The assay involved the use of the bromodomain of BRG1 in MT330 GBM cells; expressed in transfected cells; host or cells: MT330 GBM cells
T2 sequence (P51532 1453-1564 limits assumed): as above
Experimental: FIG. 3 is a series of immunoblot images showing the effects of Brahma-related gene-1 bromodomain inhibitors (BRIs) on the stability of the bromodomain of Brahma-related gene-1 in a thermal assay shift of the bromodomain in glioblastoma cells over a temperature range from 44.5 degrees Celsius (° C.) to 55.6° C. Cells were treated with (middle) PFI-3 (30 micromolar (μM)) for two hours or (right), a PFI-3 analog of the presently disclosed subject matter (IV-073) (20 μM) for two hours. For comparison, control cells treated with dimethyl sulfoxide (DMSO) are shown at […].
To further study the activity of the presently disclosed PFI-3 analogs, a thermal shift assay was employed. The assay involved the use of the bromodomain of BRG1 in MT330 GBM cells at temperatures ranging from 44.5° C. to 55.6° C.

X16 BTIC = X16 BTIC mouse flank xenografts; type: in vivo, mice; conditions: combined with TMZ; for tumor growth: 2 weeks post-treatment, compared with PFI-3 and TMZ, BRI 0.5 μg/mouse, TMZ 0.25 mg/mouse IP alternate days
Experimental: FIG. 1F is a graph showing the effect of temozolomide (TMZ) on the tumorigenicity of control (black portion of bars) and Brahma-related gene-1-knock-down (BRG1-KD) (grey portion of bars) brain-tumor initiating cells (BTICs) after injection of 10^6 tumor cells into the flanks of immunodeficient mice. Live animal imaging preformed at weekly intervals. After confirming tumor initiation by live animal imaging, mice were treated with TMZ by interperitoneal (IP) injection (10 milligrams per kilogram (mg/kg) on alternate days). The reduction in tumor volume was calculated at 1 week (left) and 2 weeks (right) post-treatment. *p≤0.05.
FIG. 5 is a graph showing the effect of Brahma-related gene-1 bromodomain inhibitors (BRIs), PFI-3 and the PFI-3 analogs (PAs) IV-073, IV-077, and IV-085, on the anticancer activity of temozolomide (TMZ) on brain-tumor initiating-cell (BTIC) tumor growth. BTICs (10^6 cells) from X16 glioblastoma were injected into the flanks of immunodeficient mice. After confirming tumor initiation by live animal imaging, mice were treated with PFI-3 or a PA (0.5 microgram per mouse (μg/mouse)) and TMZ (0.25 mg/mouse) by intrarperitoneal (IP) injection on alternate days. The reduction in tumor volume was calculated at 2 weeks post-treatment.
BRG1 loss sensitizes BTICs to TMZ in vitro and in vivo: Although the alkylating agent TMZ is front-line chemotherapy in the treatment of GBM, a significant clinical problem is intrinsic or adaptive resistance to TMZ.^63 To evaluate TMZ sensitivity, GBM6 or X16 BTICs were treated with 300 μM or 500 μM TMZ, and cell proliferation was determined. […] Since BRG1 has been implicated in DNA double-strand break repair,^65-67 it was hypothesized that BRG1 loss in BTICs would sensitize BTICs to TMZ. […] To determine whether BRG1-KD sensitized BTICs to TMZ in vivo, animal studies were conducted with control (scrambled shRNA) and BRG1-KD X16 BTICs injected into the flanks of NSG mice. After tumor initiation was confirmed by live animal imaging, mice were treated with TMZ. […] Thus, despite X16 BRG1-KD BTICs producing larger tumors, the tumors were sensitized to TMZ therapy.
In contrast, all mice with single drug treatment had to be euthanized because the tumors had reached […] by 3 weeks post-treatment.

[3] = system: LN229 TMZ-resistant glioma cell line; assay: IncuCyte live cell imaging proliferation assay; type: cell-based; conditions: for sensitization to TMZ: BRI 1 μM combined with 100 μM TMZ; for effect on cell growth: BRI alone (1 μM)
Experimental: (§1) FIG. 2A is a graph showing relative growth of temozolomide (TMZ)-resistant glioma cells (LN229 cells) alone (control); after treatment with 100 micromolar (μM) TMZ; after treatment with a Brahma-related gene-1 bromodomain inhibitor (BRI), PFI-3 (1 μM); or after treatment with both TMZ and PFI-3 (combined).
as §1, with “2B” for “2A”, “IV-073” for “PFI-3”
as §1, with “2C” for “2A”, “LN229 Temozolomide” for “temozolomide”, “cells” for “cells (LN229 cells)”, “IV-077” for “PFI-3”
as §1, with “2D” for “2A”, “LN229 Temozolomide” for “temozolomide”, “cells” for “cells (LN229 cells)”, “IV-085” for “PFI-3”
To determine whether PFI-3 (also called YH-IV-081) and its analogs (referred to herein as “PAs”) enhanced TMZ sensitivity IncuCyte live cell imaging proliferation assays (high throughput system) were performed with the LN229 TMZ-resistant glioma cell line.

GBM cells [4] = assay: survival of mice after intracranial injection of GBM cells; type: in vivo; conditions: combination with TMZ, intraperitoneal, 10 mg/kg body weight
Experimental: FIG. 6 is a graph showing the survival curves (percent survival versus days after treatment) of mice after intracranial injection of glioblastoma (GBM) cells and intraperitoneal injection of temozolomide (TMZ) or combinations of TMZ and a Brahma-related gene-1 bromodomain inhibitors (BRIs): PFI-3 or one of the presently disclosed PFI-3 analogs (PAs) IV-073 or IV-085. Five mice per group were treated with TMZ with or without the BRI (10 milligrams per kilogram (mg/kg) body weight.
TMZ with or without a BRI was also tested in mice after intercranial injection of GBM cells.

O=NN(CCCl)C(=O)NCCCl [Carmustine]
Carmustine sensitivity (X16 BTICs): highly resistant
Carmustine sensitivity (X10 BTICs): highly resistant

O=C(/C=C/N1C[C@H]2C[C@@H]1CN2c1ccccn1)c1cc(F)ccc1O [IV-073, (E)-1-(5-fluoro-2-hydroxyphenyl)-3-((1R,4R)-5-(pyridin-2-yl)-2,5-diazabicyclo[2.2.1]heptan-2-yl)prop-2-en-1-one]
sensitizing activity to TMZ compared to PFI-3 (GBM cells [1]; listed as YH-IV-073): significantly improved sensitizing activity; also recorded: better efficacy
GBM cell death (GBM cells [1]): do not cause GBM cell death
displacement of the BRG1 bromodomain from the nucleus [2]: more effective in displacing the bromodomain
stabilization of the BRG1 bromodomain (bromodomain of BRG1): more effective in stabilizing the bromodomain
tumor growth (X16 BTIC): marked effect on tumor growth
tumors after treatment for 8 weeks (X16 BTIC): only small tumors were detectable
sensitization to TMZ [3]: potently sensitized
effect on cell growth [3]: relatively minor effects on cell growth

O=C(/C=C/N1C[C@H]2C[C@@H]1CN2c1ccccn1)c1ccc(Cl)cc1O [IV-077, (E)-1-(4-chloro-2-hydroxyphenyl)-3-((1R,4R)-5-(pyridin-2-yl)-2,5-diazabicyclo[2.2.1]heptan-2-yl)prop-2-en-1-one]
sensitizing activity to TMZ compared to PFI-3 (GBM cells [1]): significantly improved sensitizing activity
GBM cell death (GBM cells [1]): do not cause GBM cell death
sensitization to TMZ [3]: potently sensitized
effect on cell growth [3]: relatively minor effects on cell growth

O=C(/C=C/N1C[C@H]2C[C@@H]1CN2c1ccccn1)c1ccccc1Cl [IV-085, (E)-1-(2-chlorophenyl)-3-((1R,4R)-5-(pyridin-2-yl)-2,5-diazabicyclo [2.2.1]heptan-2-yl) prop-2-en-1-one]
sensitizing activity to TMZ compared to PFI-3 (GBM cells [1]): significantly improved sensitizing activity
GBM cell death (GBM cells [1]): do not cause GBM cell death
animal survival (GBM cells [4]): greatest effect
tumor growth (X16 BTIC): marked effect on tumor growth
tumors after treatment for 8 weeks (X16 BTIC): only small tumors were detectable
sensitization to TMZ [3]: potently sensitized
effect on cell growth [3]: relatively minor effects on cell growth
